Experimental findings from paper PMC6410416 (Marine Drugs, 2019) are described below.

Structures are written as SMILES.

The assay concerns the target T1, Ps-Mn-SOD (Paelopatides sp. YL-2018, UniProt A0A411L1L4).
T1 construct: ORF 255 residues, signal peptide deleted; 6xHis tag (pCold II), E. coli pG-KJE8/BL21, Ni-NTA; about 30 kDa subunit, dimer about 60 kDa; C-terminal peptide (from primer) PSKHEEL
T1 sequence (A0A411L1L4 22-255): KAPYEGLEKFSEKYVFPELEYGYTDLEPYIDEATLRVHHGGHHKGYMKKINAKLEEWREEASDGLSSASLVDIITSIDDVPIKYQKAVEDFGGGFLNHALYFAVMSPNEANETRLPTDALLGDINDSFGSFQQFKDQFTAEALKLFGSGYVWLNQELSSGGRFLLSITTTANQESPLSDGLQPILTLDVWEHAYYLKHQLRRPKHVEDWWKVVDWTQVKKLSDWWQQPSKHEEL
Kind of assay: SOD assay kit, inhibition of chromogen production at […] nm. The note with it: superoxide generated in situ; turnover only. It is filed as biochemical.

In the case of `[O]O` [superoxide], the “SOD assay kit, inhibition of chromogen production at 550 nm” value is on record as “SOD activity was determined via spectrophotometric method using the SOD assay kit”.
